Results taken from patent US8901116B2, “Method for treating pain, anxiety or depression using carbamoyloxy alkanoyl piperazine compound” (SK Biopharmaceuticals Co., Ltd., priority 2007, dated 2014).

Key:
Assay type in all cases: in vivo
male ICR mouse [1] = test: Elevated plus maze (EPM) test in mouse; details: po, p.o, 1 hour after dosing, 5 minutes observation, read-out: Elevated Plus Maze Change index in Open-Arm Time
Description: Elevated plus maze (EPM) is one of representative models that examine an anti-anxiety activity of a test material. Equipment used for an EPM test has a crossroad shape raised in a high position off the ground, and is configured in such a cliff shape that both sides of one road are protected with high walls and the other road is free from the wall. Among them, the road in the cliff shape is referred to as an ‘open arm,’ and the road protected by the walls is referred to as a ‘close arm.’ In this case, a level of the anxiety of a mouse may be measured by determining in which arm the mouse stays longer. In general, the mouse stays longer in the close arm than the open arm, but a mouse treated with a medicine showing an anti-anxiety effect stays relatively longer in the open arm. A test material dissolved in a suitable vehicle was orally administered to a male ICR mouse weighing 20 to 25 g at an amount of 10 mg/kg. After 1 hour of the oral administration, the mouse was put on the center of an EPM equipment to measure how long the mouse stays in the open arm within a time range of 5 minutes. The anti-anxiety effect of the test material is represented by the ‘Change index in Open-Arm Time’ {[(open arm duration in test material-administered group−open arm duration in vehicle-administered group)/(open arm duration in vehicle administered group)]×100%}.

male ICR mouse [2] = test: Hot plate test in mouse; details: po, p.o, 1 hour after dosing, hot plate 55° C., read-out: Hot Plate Test Increase in latency of avoidance response
Method: A hot plate test is one of representative models for measuring an analgesic effect of drugs. A test material dissolved in a suitable vehicle was orally administered to a male ICR mouse weighing 25 to 30 g at an amount of 30 mg/kg. After 1 hour of the oral administration, the mouse was put on a hot plate (55° C.). A latency was recorded from the time right after a mouse is put on a hot plate to the time when avoidance responses (flinching, licking, jumping, etc.) to pain are observed from forefeet or rear legs of the mouse. The analgesic effect of the test material is represented by the ‘Increase in latency of avoidance response’ {[(Latency of avoidance response to pain of Test material-administered group−Latency of avoidance response to pain of vehicle-administered group)/(Latency of avoidance response to pain of Solvent-administered group)]×100%}.

male ICR mouse [3] = test: Head twitch potentiation induced by 5-HTP (5-HTP potentiation test) in mouse; details: po, 0.5 h, p.o, 5-HTP 80 mg/kg + Carbidopa 25 mg/kg i.p. 30 minutes after dosing, head twitches counted for 2 minutes, negative = 5-HT2A antagonist, read-out: 5-HTP Potentiation Increase rate in Head Twitch No.
Method: When 5-hydroxy-L-tryptophan (5-HTP) is administered into a mouse, a head twitch phenomenon is observed since serotonin is increasingly secreted in the mouse. […] By using this principle, it is possible to search an effect of the representative antidepressant agent. A test material dissolved in a suitable vehicle was orally administered to a male ICR mouse weighing 20 to 25 g at an amount of 30 mg/kg. After 30 minutes of the oral administration, 5-HTP (80 mg/kg) and 5-HTP peripheral decarbozylase inhibitor ‘Carbidopa’ (25 mg/kg) were intraperitoneally administered to the mouse. After 30 minutes of the intraperitoneal administration, the mouse was put into an observation cage, and head twitches of the mouse were counted for 2 minutes. The anti-depression effect of the test material is represented by the ‘Increase rate in Head Twitch No.’ {[(Head Twitch No. of Test material-administered group−Head Twitch No. of vehicle-administered group)/(Head Twitch No. of vehicle-administered group)]×100%}. […] In addition to the selective serotonin reuptake inhibitor (SSRI) that has been widely used as an antidepressant agent in the clinical fields, it was tested that 5-HT2A antagonists such as nefazodone and trazodone also have an antidepressant effect.

male ICR mouse [4] = test: Acetic acid-induced writhing test in mouse; details: po, p.o, acetic acid i.p. 1 hour after dosing, writhing counted for 10 minutes, read-out: Writhing Test Suppression of pain response
Method: An acetic acid-induced writhing test is one of models for measuring an analgesic effect of drugs. A test material dissolved in a suitable vehicle was orally administered to a male ICR mouse weighing 30 to 35 g at an amount of 10 mg/kg. After 1 hour of the oral administration, […] of an aqueous 0.8% acetic acid solution was intraperitoneally injected into the male ICR mouse to induce the abdominal pain of the male ICR mouse. Right after the administration of acetic acid, the male ICR mouse was put into an empty cage, and the number of writhing behaviors of the mice was counted for 10 minutes. The term “writhing” represents a reflex action in which the mouse overtly extends its abdomen by stretching its hind legs due to the abdominal pain. The analgesic effect of the test material is represented by the ‘suppression of pain response’ {[(Writhing number of vehicle-administered group−Writhing number of Test material—administered group)/(Writhing number of Solvent-administered group)]×100%}.

| SMILES | change in vivo at 10 mg/kg (male ICR mouse [1]) [%] | change in vivo at 30 mg/kg (male ICR mouse [2]) [%] | change in vivo at 30 mg/kg (male ICR mouse [3]) [%] | inhibition in vivo at 10 mg/kg (male ICR mouse [4]) [%] |
| --- | --- | --- | --- | --- |
| COc1ccc(N2CCN(C(=O)C[C@H](OC(N)=O)c3ccccc3)CC2)cc1OC [Example 65, (S)-carbamic acid 3-[4-(3,4-dimethoxy-phenyl)-piperazin-1-yl]-3-oxo-1-phenyl-propyl ester] | 74.7 | 38.6 | 91.6 | – |
| Cc1ccc(N2CCN(C(=O)CC(OC(N)=O)c3ccccc3)CC2)cc1 (centres unmarked) [Example 4, carbamic acid 3-oxo-1-phenyl-3-(4-p-tolyl-piperazin-1-yl)-propyl ester] | 41.1 | 34.1 | -7.1 | 74.6 |
| NC(=O)O[C@H](CC(=O)N1CCN(c2ccc(Cl)cc2)CC1)c1ccccc1 [Example 61, (R)-carbamic acid 3-[4-(4-chloro-phenyl)-piperazin-1-yl]-3-oxo-1-phenyl-propyl ester] | -27.4 | 38.8 | 27.3 | 24.1 |
| NC(=O)OC(CC(=O)N1CCN(c2cc(Cl)cc(Cl)c2)CC1)c1ccccc1 (centres unmarked) [Example 10, carbamic acid 3-[4-(3,5-dichloro-phenyl)-piperazin-1-yl]-3-oxo-1-phenyl-propyl ester] | 27.3 | 14.8 | 85.7 | 26 |
| NC(=O)OC1c2ccccc2CCC1C(=O)N1CCN(c2ccccc2)CC1 (centres unmarked) [Example 52, carbamic acid-2-(4-phenyl-piperazine-1-carbonyl)-1,2,3,4-tetrahydro-naphthalene-1-yl ester] | 14.6 | 20.5 | 40 | 26.8 |
| CC(=O)Oc1ccc(N2CCN(C(=O)CC(OC(N)=O)c3ccccc3)CC2)cc1 (centres unmarked) [Example 23, acetic acid 4-[4-(3-carbamoyloxy-3-phenyl-propionyl)-piperazin-1-yl]-phenyl ester] | -25.1 | 29.4 | 100 | 21.1 |
| COc1ccc(N2CCN(C(=O)CC(OC(N)=O)c3ccc(Cl)cc3)CC2)cc1OC (centres unmarked) [Example 6, carbamic acid 1-(4-chloro-phenyl)-3-[4-(3,4-dimethoxy-phenyl)-piperazin-1-yl]-3-oxo-propyl ester] | – | 11 | – | 44.8 |
| COc1ccc(N2CCN(C(=O)CC(OC(N)=O)c3ccc(C)cc3)CC2)cc1OC (centres unmarked) [Example 8, carbamic acid 3-[4-(3,4-dimethoxy-phenyl)-piperazin-1-yl]-3-oxo-1-p-tolyl-propyl ester] | – | 10.9 | – | 30.1 |
| COc1ccc(N2CCN(C(=O)CC(OC(N)=O)c3ccccc3)CC2)cc1OC (centres unmarked) [Example 5, carbamic acid 3-[4-(3,4-dimethoxy-phenyl)-piperazin-1-yl]-3-oxo-1-phenyl-propyl ester] | – | 39.2 | – | 79.7 |
| NC(=O)OC(CC(=O)N1CCN(c2ccc3c(c2)OCO3)CC1)c1ccccc1 (centres unmarked) [Example 14, carbamic acid 3-(4-benzo[1,3]dioxol-5-yl-piperazin-1-yl)-3-oxo-1-phenyl-propyl ester] | – | 17.8 | – | 64 |
| COc1ccc(N2CCN(C(=O)C[C@H](OC(N)=O)c3ccccc3)CC2)cc1 [Example 69, (S)-carbamic acid 3-[4-(4-methoxy-phenyl)-piperazin-1-yl]-3-oxo-1-phenyl-propyl ester] | 57.3 | 22.9 | -14.3 | – |
| NC(=O)OC(CC(=O)N1CCN(c2ncc(Cl)cc2Cl)CC1)c1ccccc1 (centres unmarked) [Example 26, carbamic acid 3-[4-(3,5-dichloro-pyridin-2-yl)-piperazin-1-yl]-3-oxo-1-phenyl-propyl ester] | – | 20.6 | – | 30.8 |
| NC(=O)OC(CC(=O)N1CCN(c2ccccn2)CC1)c1ccccc1 (centres unmarked) [Example 24, carbamic acid 3-oxo-1-phenyl-3-(4-pyridin-2-yl-piperazin-1-yl)-propyl ester] | – | 28.1 | – | 61.2 |
| COc1ccc(N2CCN(C(=O)CCC(OC(N)=O)c3ccccc3)CC2)cc1OC (centres unmarked) [Example 41, carbamic acid 4-[4-(3,4-dimethoxy-phenyl)-piperazin-1-yl]-4-oxo-1-phenyl-butyl ester] | – | 28.7 | – | 31.2 |
| COc1ccc(N2CCN(C(=O)CC(OC(N)=O)c3ccc(F)cc3)CC2)cc1OC (centres unmarked) [Example 7, carbamic acid 3-[4-(3,4-dimethoxy-phenyl)-piperazin-1-yl]-1-(4-fluoro-phenyl)-3-oxo-propyl ester] | – | 14.7 | – | 40.9 |
| NC(=O)OC(CC(=O)N1CCN(c2ncccn2)CC1)c1ccccc1 (centres unmarked) [Example 25, carbamic acid 3-oxo-1-phenyl-3-(4-pyrimidin-2-yl-piperazin-1-yl)-propyl ester] | – | 15.9 | – | 59.3 |
| COc1ccc(C(CC(=O)N2CCN(c3ccccc3)CC2)OC(N)=O)cc1 (centres unmarked) [Example 15, carbamic acid 1-(4-methoxy-phenyl)-3-oxo-3-(4-phenyl-piperazin-1-yl)-propyl ester] | – | 17.9 | – | 35.1 |
| NC(=O)OC(CC(=O)N1CCN(c2ccc(F)c(F)c2)CC1)c1ccccc1 (centres unmarked) [Example 33, carbamic acid 3-[4-(3,4-difluoro-phenyl)-piperazin-1-yl]-3-oxo-1-phenyl-propyl ester] | – | 43.6 | – | 74.5 |
| COc1ccc(N2CCN(C(=O)CC(OC(N)=O)c3ccccc3)CC2)c(OC)c1 (centres unmarked) [Example 9, carbamic acid 3-[4-(2,4-dimethoxy-phenyl)-piperazin-1-yl]-3-oxo-1-phenyl-propyl ester] | – | 16.4 | – | 33.1 |
| NC(=O)OC(CC(=O)N1CCN(c2ccccc2)CC1)c1ccccc1[N+](=O)[O-] (centres unmarked) [Example 42, carbamic acid 1-(2-nitro-phenyl)-3-oxo-3-(4-phenyl-piperazin-1-yl)-propyl ester] | 27.3 | – | 33.3 | – |
| NC(=O)OC(CC(=O)N1CCN(c2ccc(Cl)cc2)CC1)c1ccccc1 (centres unmarked) [Example 38, carbamic acid 3-[4-(4-chloro-phenyl)-piperazin-1-yl]-3-oxo-1-phenyl-propyl ester] | – | 38.3 | – | 66.1 |
| COc1ccc(N2CCN(C(=O)CC(OC(N)=O)c3ccccc3)CC2)cc1 (centres unmarked) [Example 2, carbamic acid 3-[4-(4-methoxy-phenyl)-piperazin-1-yl]-3-oxo-1-phenyl-propyl ester] | – | 37.5 | – | 54.6 |
